Source: US20230312631A1, “EXTRUSION PROCESS FOR THE PREPARATION OF A SOLID ALLULOSE COMPOSITION” (SAVANNA INGREDIENTS GMBH, priority 2020, published 2023)
Like-named read-outs stand apart in the source and are kept apart here.

How the values were obtained:
[1] = cited from earlier work
[2] = cited from earlier work; remark: listed apart in the source
[3] = Preliminary tests to estimate supersaturation and undercooling of carbohydrates in water; assay type: physicochemical
From the text: Therefore, preliminary tests were made in order to estimate supersaturation and overcooling of various carbohydrates in water under different conditions.

[4] = Mutarotation: angle of rotation over time after dissolving allulose in water (polarimeter); assay type: physicochemical; conditions: 23° C.; for angle of rotation: desalted water, DS about 26 wt.-%
Description: Crystalline allulose was dissolved in water (DS 26 wt.-%). Quickly afterwards, the sample was placed in a polarimeter and the angle of rotation was read off at regular intervals ([…], 23° C.). From this, the angle of rotation was then plotted over time (see FIG. 1). 74.30 g of water and 26.05 g of crystalline allulose were mixed. The mixture was briefly stirred with a stir bar until the allulose was completely dissolved. Then a sample was placed in the polarimeter and the angle of rotation of the same sample was measured at regular intervals. There were approximately 5 minutes between the addition of the allulose and the first measured value (0 min).
Mutarotation of solid allulose obtained in accordance with the present invention was compared to mutarotation of highly crystalline allulose. For this purpose, solutions at a dry substance content of about DS 26 wt.-% were prepared from powdery compositions each having a particle size within the range of from 100 to 200 μm (sieve fraction).
15.61 g of powdery crystalline allulose (comparative) of grain size 100-200 μm were dissolved at 23° C. in 47.6 g desalted water in a 500 mL beaker. The angle of rotation was measured over time with a polarimeter.
13.00 g of extruded allulose (inventive) of grain size 100-200 μm were dissolved at 23° C. in 37.07 g desalted water in a 500 mL beaker. The angle of rotation was measured over time with a polarimeter.
For the sake of better comparability, the specific angle of rotation [(° *ml)/(dm*g)] was calculated for each measured value. The results are visualized in FIG. 2.

[5] = cited from earlier work; remark: listed apart in the source
[6] = mass fraction 70% prior to evaporation, temperature 150° C.
[7] = mass fraction 80% prior to evaporation, temperature 190° C.
[8] = in water, 13C NMR (du Penhoat et al.)
[9] = mass fraction 90%, temperature 58° C.
[10] = mass fraction 80%, temperature 149° C.

Question: Which results are given for `O=C(CO)C(O)C(O)C(O)CO` [allulose, D-allulose]?
Answer: solubility ([1]; 25° C.): 291 g per 100 g water; solubility in water ([1]; 25° C.): 291 g in 100 g of water; solubility in water expressed as mass fraction ([1]; 25° C.): 74%; solubility in water ([1]; 50° C.): 489 g in 100 g of water; solubility in water expressed as mass fraction ([1]; 50° C.): 83%; rate constant k of development of open-chain carbonyl-form in solution (first-order) ([2]; absorbance at 280 nm after dissolution): 4.44 ms^−1; equilibrium content of carbonyl-form ([2]; in solution): about 0.2%; supersaturation [3, 6]: −27%; undercooling [3, 6]: −54K; supersaturation [3, 7]: −19%; undercooling [3, 7]: −94K; time until the angle of rotation remains constant (chiral species in solution equilibrated) ([4]; 26.05 g crystalline allulose in 74.30 g water, DS 26 wt.-%, FIG. 1): more than 1 hour; percent composition of anomeric forms: keto form ([5]; in D2O at 303.15 K): 0.2%; percent composition of anomeric forms: α-furanose ([5]; in D2O at 303.15 K): 39%; percent composition of anomeric forms: α-pyranose ([5]; in D2O at 303.15 K): 22%; percent composition of anomeric forms: β-furanose ([5]; in D2O at 303.15 K): 15%; percent composition of anomeric forms: β-pyranose ([5]; in D2O at 303.15 K): 24%; equilibrium composition: α-furanose [5, 8]: 37%; equilibrium composition: α-pyranose [5, 8]: ~26%; equilibrium composition: β-furanose [5, 8]: ~11%; equilibrium composition: β-pyranose [5, 8]: ~26%

Question: For `O=C(CO)C(O)C(O)C(O)CO` (stereo not drawn) [comparative, allulose], which angle of rotation ([4]; time 0 min) is on record?
Answer: Its angle of rotation is −33.4 °.

Question: And the angle of rotation ([4]; time 0.5 min)?
Answer: The angle of rotation was −31.1 °.

Question: And the angle of rotation ([4]; time 1 min)?
Answer: Its angle of rotation is −29 °.

Question: What about the angle of rotation ([4]; time 1.5 min) of the same molecule?
Answer: The angle of rotation was −27 °.

Question: What about the angle of rotation ([4]; time 2 min) of the same molecule?
Answer: Its angle of rotation is −25.1 °.

Question: What about the angle of rotation ([4]; time 2.5 min) of the same molecule?
Answer: The angle of rotation was −23.35 °.

Question: What about the angle of rotation ([4]; time 3 min) of the same molecule?
Answer: Its angle of rotation is −21.7 °.

Question: And the angle of rotation ([4]; time 3.5 min)?
Answer: Its angle of rotation is −20.13 °.

Question: And the angle of rotation ([4]; time 4 min)?
Answer: Its angle of rotation is −18.71 °.

Question: And the angle of rotation ([4]; time 4.5 min)?
Answer: Its angle of rotation is −17.36 °.

Question: And the angle of rotation ([4]; time 5 min)?
Answer: Its angle of rotation is −16.1 °.

Question: What about the angle of rotation ([4]; time 5.5 min) of the same molecule?
Answer: The angle of rotation was −14.91 °.

Question: And the angle of rotation ([4]; time 6 min)?
Answer: Its angle of rotation is −13.8 °.

Question: What about the angle of rotation ([4]; time 6.5 min) of the same molecule?
Answer: The angle of rotation was −12.78 °.

Question: What about the angle of rotation ([4]; time 7 min) of the same molecule?
Answer: Its angle of rotation is −11.81 °.

Question: And the angle of rotation ([4]; time 7.5 min)?
Answer: Its angle of rotation is −10.9 °.

Question: What about the angle of rotation ([4]; time 8 min) of the same molecule?
Answer: Its angle of rotation is −10.05 °.

Question: And the angle of rotation ([4]; time 8.5 min)?
Answer: The angle of rotation was −9.25 °.

Question: What about the angle of rotation ([4]; time 9 min) of the same molecule?
Answer: The angle of rotation was −8.51 °.

Question: And the angle of rotation ([4]; time 9.5 min)?
Answer: The angle of rotation was −7.81 °.

Question: What about the angle of rotation ([4]; time 10 min) of the same molecule?
Answer: Its angle of rotation is −7.18 °.

Question: And the angle of rotation ([4]; time 10.5 min)?
Answer: Its angle of rotation is −6.57 °.

Question: What about the angle of rotation ([4]; time 11 min) of the same molecule?
Answer: Its angle of rotation is −6 °.

Question: What about the angle of rotation ([4]; time 11.5 min) of the same molecule?
Answer: Its angle of rotation is −5.47 °.

Question: What about the angle of rotation ([4]; time 12 min) of the same molecule?
Answer: The angle of rotation was −4.98 °.

Question: What about the angle of rotation ([4]; time 12.5 min) of the same molecule?
Answer: The angle of rotation was −4.51 °.

Question: And the angle of rotation ([4]; time 13 min)?
Answer: The angle of rotation was −4.08 °.

Question: And the angle of rotation ([4]; time 13.5 min)?
Answer: Its angle of rotation is −3.67 °.

Question: What about the angle of rotation ([4]; time 14 min) of the same molecule?
Answer: Its angle of rotation is −3.29 °.

Question: What about the angle of rotation ([4]; time 14.5 min) of the same molecule?
Answer: Its angle of rotation is −2.93 °.

Question: And the angle of rotation ([4]; time 15 min)?
Answer: Its angle of rotation is −2.6 °.

Question: And the angle of rotation ([4]; time 15.5 min)?
Answer: Its angle of rotation is −2.29 °.

Question: And the angle of rotation ([4]; time 16 min)?
Answer: Its angle of rotation is −2 °.

Question: And the angle of rotation ([4]; time 16.5 min)?
Answer: Its angle of rotation is −1.72 °.

Question: What about the angle of rotation ([4]; time 17 min) of the same molecule?
Answer: The angle of rotation was −1.47 °.

Question: And the angle of rotation ([4]; time 17.5 min)?
Answer: The angle of rotation was −1.23 °.

Question: And the angle of rotation ([4]; time 18 min)?
Answer: Its angle of rotation is −1 °.

Question: And the angle of rotation ([4]; time 18.5 min)?
Answer: Its angle of rotation is −0.8 °.

Question: What about the angle of rotation ([4]; time 19 min) of the same molecule?
Answer: Its angle of rotation is −0.6 °.

Question: What about the angle of rotation ([4]; time 19.5 min) of the same molecule?
Answer: The angle of rotation was −0.41 °.

Question: And the angle of rotation ([4]; time 20 min)?
Answer: The angle of rotation was −0.24 °.

Question: And the angle of rotation ([4]; time 20.5 min)?
Answer: Its angle of rotation is −0.08 °.

Question: What about the angle of rotation ([4]; time 21 min) of the same molecule?
Answer: The angle of rotation was 0.07 °.

Question: What about the angle of rotation ([4]; time 21.5 min) of the same molecule?
Answer: Its angle of rotation is 0.22 °.

Question: What about the angle of rotation ([4]; time 22 min) of the same molecule?
Answer: Its angle of rotation is 0.35 °.

Question: What about the angle of rotation ([4]; time 22.5 min) of the same molecule?
Answer: The angle of rotation was 0.47 °.

Question: And the angle of rotation ([4]; time 23 min)?
Answer: Its angle of rotation is 0.59 °.

Question: What about the angle of rotation ([4]; time 23.5 min) of the same molecule?
Answer: Its angle of rotation is 0.7 °.

Question: What about the angle of rotation ([4]; time 24 min) of the same molecule?
Answer: Its angle of rotation is 0.8 °.

Question: What about the angle of rotation ([4]; time 24.5 min) of the same molecule?
Answer: Its angle of rotation is 0.9 °.

Question: And the angle of rotation ([4]; time 25 min)?
Answer: Its angle of rotation is 0.99 °.

Question: And the angle of rotation ([4]; time 25.5 min)?
Answer: Its angle of rotation is 1.07 °.

Question: What about the angle of rotation ([4]; time 26 min) of the same molecule?
Answer: Its angle of rotation is 1.15 °.

Question: What about the angle of rotation ([4]; time 26.5 min) of the same molecule?
Answer: The angle of rotation was 1.22 °.

Question: And the angle of rotation ([4]; time 27 min)?
Answer: Its angle of rotation is 1.29 °.

Question: What about the angle of rotation ([4]; time 27.5 min) of the same molecule?
Answer: Its angle of rotation is 1.36 °.

Question: And the angle of rotation ([4]; time 28 min)?
Answer: The angle of rotation was 1.42 °.

Question: What about the angle of rotation ([4]; time 28.5 min) of the same molecule?
Answer: Its angle of rotation is 1.48 °.

Question: What about the angle of rotation ([4]; time 29 min) of the same molecule?
Answer: Its angle of rotation is 1.53 °.

Question: What about the angle of rotation ([4]; time 29.5 min) of the same molecule?
Answer: The angle of rotation was 1.58 °.

Question: And the angle of rotation ([4]; time 30 min)?
Answer: Its angle of rotation is 1.63 °.

Question: What about the angle of rotation ([4]; time 35 min) of the same molecule?
Answer: The angle of rotation was 1.96 °.

Question: And the angle of rotation ([4]; time 40 min)?
Answer: The angle of rotation was 2.13 °.

Question: What about the angle of rotation ([4]; time 45 min) of the same molecule?
Answer: Its angle of rotation is 2.22 °.

Question: And the angle of rotation ([4]; time 50 min)?
Answer: The angle of rotation was 2.26 °.

Question: What about the angle of rotation ([4]; time 55 min) of the same molecule?
Answer: The angle of rotation was 2.29 °.

Question: What about the angle of rotation ([4]; time 60 min) of the same molecule?
Answer: The angle of rotation was 2.30 °.

Question: What does the source list for `OC[C@H]1O[C@H](OC[C@H]2OC(O)(CO)[C@@H](O)[C@@H]2O)[C@H](O)[C@@H](O)[C@@H]1O` (stereo partly drawn) [isomaltulose]?
Answer: supersaturation [3, 9]: 35%; undercooling [3, 9]: 62K

Question: With `OC[C@H]1O[C@@](CO)(O[C@H]2O[C@H](CO)[C@@H](O)[C@H](O)[C@H]2O)[C@@H](O)[C@@H]1O` [sucrose] as the molecule, how does the supersaturation [3, 10] read?
Answer: Its supersaturation is −14%.

Question: And the undercooling [3, 10]?
Answer: The undercooling was 37K.

Question: With `OC[C@@]1(O)OC[C@@H](O)[C@@H](O)[C@H]1O` [β-D-psicopyranose] as the molecule, how does the “Mutarotation [α]” value ([2]; in water) read?
Answer: Its value is “about −85 deg dm^−1 cm^3”.
